Measurements published in patent publication US11339175B2, “Thiol-based fluorescent probe for reactive species” (The Board of Trustees of the University of Illinois, priority 2018, dated 2022).
Blank lines part the entries; values can stand above or below the compound they belong to.

What was measured:
[1] = reported value; cited from earlier work
[2] = Stability in aqueous media: background fluorescence turn-on with vehicle control; type: physicochemical; conditions: PBS
Experimental: (§1) FIG. 4. The normalized fluorescence turn-on response of NitroxylBlue-1, -2, and -3 treated with a vehicle control and incubated in PBS at 37° C. are shown in black. The normalized fluorescence turn-on response of NitroxylBlue-1, -2, and -3 treated with 100 μM Angeli's salt are shown in green. All data was taken 10 minutes after treatment. Statistical significance measured with respect to the corresponding control. *, p<0.05; **, p<0.01. (n=3).
FIG. 5. The normalized fluorescence turn-on response of S-methyl NitroxylBlue treated with vehicle control (black) or Angeli's salt (100 μM) and incubated in PBS at 25° C. All data was taken 15 minutes after treatment.

[3] = Fluorescence turn-on response to HNO (Angeli's salt) in vitro
Experimental: (§2) FIG. 2. a) Fluorescence spectra of NitroxylFluor (2 μM) upon addition of AS (100 μM). b) Fluorescence kinetic trace of NitroxylFluor upon addition of 1 mM Angeli's salt, arrow indicates time of addition. c) Response of NitroxylFluor to various reactive oxygen, sulfur, and nitrogen species at concentrations of 100 μM (GSH was tested at 1 mM). Measurements were taken 15 minutes into treatment. d) Competition assays against various thiols. Control indicates no addition of Angeli's salt. Statistics are compared to the control. *, p<0.05; ***, p<0.001; p<0.0001. (n=3).
as §1
Angeli's salt was stored at −20° C. Stocks of Angeli's salt were added as a 10 mM solution in 10 mM KOH (for stability). Hydrogen peroxide was added as a 10 mM stock solution prepared by diluting 30% hydrogen peroxide in deionized water. Superoxide was added as a 1 mM stock solution of potassium superoxide in DMSO (for stability). […]

MDA-MB-231 cells [4] = assay: MTT cytotoxicity assay; type: cell-based, human
Experimental: FIG. 9. MTT assay to determine the cytotoxicity of NitroxylFluor at 4 μM over 3, 6, and 24 hours. Detailed protocol available on page 3 of this supporting information document.
A 96-well plate was seeded with 20,000 cells per well (200 μL of 150,000 cells/mL) and incubated at 37° C. with 5% CO2 for 24 h (˜70% confluent). […] After 3, 6, and 24 h the media was removed and replaced with […] 20:1 mixture of FBS-free DMEM and (3-(4,5-dimethylthiazol-2-yl)-2,5-diphenyl-tetrazolium bromide (MTT, 5 mg/mL stock in PBS). The cells were incubated for 4 h under the same conditions and then the medium was removed and replaced with DMSO ([…]). The absorbance of each well was recorded at 555 nm on a microplate reader. Viability was calculated by the absorbance relative to the vehicle control. Results pictured in FIG. 7.

[5] = Selectivity against reactive oxygen, sulfur and nitrogen species
Experimental: as §2
Angeli's salt was stored at −20° C. Stocks of Angeli's salt were added as a 10 mM solution in 10 mM KOH (for stability). […]
Hydroxyl radical was prepared by first preparing a 10 mM solution of Mohr's Salt (Fe(NH4)2(SO4)2.6H2O in 0.1 M HCl which was degassed by bubbling nitrogen gas for 20 minutes through the solution. A solution of the probe was made in buffer and degassed and the initial reading was taken. 10 μL of 10 mM Hydrogen Peroxide and Mohr's salt solution giving a final volume of 1 mL (100 μM hydroxyl radical) were added and allowed to incubate at 37° C. for the duration of the selectivity assay with a septum on the cuvette. Iron(II) was prepared via the same procedure as hydroxyl radical only hydrogen peroxide was not added. […]

MDA-MB-231 cells [6] = assay: Confocal imaging of HNO in living cells; type: cell-based, human
Experimental: FIG. 3. Confocal microscopy images acquired by irradiation of MDA-MB-231 cells treated with 0 μM (vehicle control), 250 μM, 500 μM, 1000 μM Angeli's salt for 15 mins at 25° C. with a 488 nm laser. Images taken through a 40× oil immersion objective. Scale bar represents 20 μm. b) Quantification of imaging data. *, p<0.05; ***, p<0.001; p<0.0001.
FIG. 8. Representative time course imaging of MDA-MB-231 cells stained with 4 μM NitroxylFluor for 15 minutes followed by replacement with fresh PBS with no probe. Angeli's salt (200 μM) was added 5 minutes after PBS was replaced. Images were taken through a 40× oil immersion objective at 0, 10, and 20 mins after AS addition at 25° C. via irradiation with a 488 nm laser. Scale bar represents 20 μm.
MDA-MB-231 adenocarcinoma cells were acquired from Prof. David J. Shapiro (Biochemistry, UIUC). Cells were cultured in phenol-red free Dulbecco's modified eagle medium (DMEM, Corning) supplemented with 10% fetal bovine serum (FBS, Sigma Aldrich), and 1% penicillin/streptomycin (Corning). Cells were incubated at 37° C. with 5% CO2. Experiments were performed in 8-well chambered cover glasses (Lab-Tek, Thermo Scientific).
An 8-well chambered cover glass was seeded with 0.4 mL of the above-mentioned cells at a density of 200,000 cells/mL. Cells were imaged at roughly 80% confluency (24 hours after seeding). Media was removed from each well and cells were washed with 200 μL PBS. The PBS was removed from the wells and replaced with 198 μL. 2 μL of 200 μM NitroxylFluor in PBS was added and gently stirred before being allowed to incubate at 37° C. with 5% CO2 for 15 minutes. PBS was then removed from the wells and replaced with 195 μL, 190 μL, or 180 μL PBS. The remaining volume to 200 μL was filled with 10 mM Angeli's salt in 10 mM KOH (or 10 mM KOH in the vehicle control) to give final concentrations of 0.250 mM, 0.500 mM, or 1 mM Angeli's salt. […] 3-5 images of each well were taken and their mean fluorescence (as reported by ImageJ) was averaged to give an average value for each well. […]

[7] = Competition assays against thiols for HNO; conditions: 10 μM probe, Angeli's salt 200 μM
Experimental: as §2, with “Statistics are compared to the control. *, p<0.05; ***, p<0.001; p<0.0001.” left out
In these experiments, 10 μM solutions of NitroxylFluor and various thiols such as L-cysteine (100 μM), N-acetyl-L-cysteine (100 μM), and GSH (1 mM) was treated with Angeli's salt (200 μM) (FIG. 2d).

[8] = Thiol pKa by UV/vis absorbance at 230 nm; type: physicochemical; conditions: Britton-Robinson Universal Buffer
Text: Assay was completed by measuring the absorbance at 230 nm as described by Tajc et al. (J Am Chem Soc 2004, 126, 10508). Each reading was taken in triplicate and averaged in the respective pH Britton-Robinson Universal Buffer.

SMILES: N[C@@H](CCC(=O)N[C@@H](CS)C(=O)NCC(=O)O)C(=O)O [GSH, glutathione]
reported pKa [1]: 9.42

SMILES: CC(C)(S)C(=O)Oc1c(Cl)cc2c(c1Cl)Oc1cc(O)ccc1C21OCc2ccccc21 (stereo not shown) [NitroxylFluor]
cytotoxicity (MTT) versus DMSO control (MDA-MB-231 cells [4]; 4 μM, 3, 6, and 24 hours, n=3): No time point has significant difference from the DMSO control
cytotoxicity (MTT) (MDA-MB-231 cells [4]; 10 μM probe, 3, 6, and 24 h): Cytotoxicity at any time point was not observe
change in fluorescence with reactive sulfur and nitrogen species ([5]; e.g. H2S, NO, 100 μM, 15-minute incubation at 37° C.): no change in fluorescence
cross-reactivity with oxidants ([5]; oxidants incl. H2O2, 100 μM, 15 minutes): not observed
fluorescent turn-on response on reaction with HNO ([3]; NitroxylFluor 2 μM, Angeli's salt 100 μM, in a matter of seconds): 16 fold
fluorescence enhancement at lowest Angeli's salt concentration (MDA-MB-231 cells [6]; 250 μM Angeli's salt, 15 mins): statistically significant enhancement
fluorescence during time-lapse imaging (MDA-MB-231 cells [6]; 500 μM Angeli's salt, images every 1 min for 20 mins): gradual increase in the fluorescence
fluorescence turn-on response in cells (MDA-MB-231 cells [6]; Angeli's salt 250 μM to 1000 μM, after 15 mins): dose-dependent fluorescence turn-on response
fluorescent turn-on response in presence of GSH ([7]; GSH 1 mM): 3.9 fold
fluorescence increase in competition with L-cysteine ([7]; L-cysteine 100 μM): 16.2 fold
fluorescence enhancement in competition with N-acetyl-L-cysteine ([7]; N-acetyl-L-cysteine 100 μM): 9.8 fold

SMILES: COC(=O)C(C)(C)S [compound 16, Methyl 2-mercapto-2-methylpropanoate]
pKa [8]: 8.01

More lines, main results first:

background fluorescence turn-on (hydrolysis / alpha-thiolactonization) ([2]; vehicle control, 37° C., after 10 minutes): 1.6 fold
SMILES: Cc1cc(=O)oc2cc(OC(=O)C(C)(C)S)ccc12 [NB-2]
fluorescence turn-on response with Angeli's salt ([3]; 100 μM Angeli's salt, PBS, 37° C., 10 minutes after treatment): 3.5 fold

hydrolysis after incubation in aqueous media ([2]; 25° C., 15 minutes): No hydrolysis was observed
SMILES: CSC(C)(C)C(=O)Oc1ccc2c(C)cc(=O)oc2c1 [S-Methyl NitroxylBlue-2, reference compound]
